Data published in US20230372227A1, “PRESERVATIVE COMPRISING POLYLYSINE AND CAPRYLYL GLYCERYL ETHER FOR EXTERNAL-USE SKIN FORMULATIONS AND COSMETICS COMPOSITION COMPRISING SAME” (ACTIVON CO., LTD., priority 2020, published 2023).

Assays:
Test in all cases: Minimum inhibitory concentration (MIC) of preservatives
Type in all cases: cell-based
[1] = system: Aspergillus brasiliensis (ATCC 16404); settings: Experimental Example 1; growth inhibited by about 95% or more; about 10^6 CFU/ml; about 25° C., 24 to 48 hours
Experimental: (§1) In this experimental example, in order to evaluate the antimicrobial effect of the preservatives for skin external preparations, prepared in Examples 1 to 5, the minimum inhibitory concentrations (MICs) of the preservative of each Example against bacteria or fungi, including Escherichia coli (ATCC 8739), Pseudomonas aeruginosa (ATCC 9027), Staphylococcus aureus (ATCC 6538), Candida albicans (ATCC 10231), and Aspergillus brasiliensis (ATCC 16404), were measured.
(§2) Specifically, each of the preservatives for skin external preparations, prepared in Examples 1 to 5, was diluted to about 13% to about 25%, and each of the dilutions was further serially diluted 1:1 (10 times). Thereby, samples of various concentrations (about 0.05% to about 10%) for each of the preservatives for skin external preparations, prepared in Examples 1 to 5, were prepared. Each of the obtained samples was added to tryptic soy broth (TSB) medium or potato dextrose agar (PDA) medium. In about 10 ml of the medium to which each sample was added, each type of bacteria or fungi described above was seeded so that the final concentration of the bacteria or fungi was about 10^6 CFU/ml, and then the bacteria were cultured at about 32° C. for about 24 hours to 48 hours, and fungi were cultured at about 25° C. for about 24 hours to 48 hours. Thereafter, the minimum inhibitory concentration (MIC) of each sample capable of inhibiting the growth of the bacteria or fungi by about 95% or more was determined by observing the state of the bacterial or fungal culture medium. The growth of normal bacteria in a medium to which no sample was added was measured and used as a positive control, and the MIC for the growth of bacteria or fungi in a medium to which polyepsilon-lysine, caprylyl glyceryl ether, or propylene glycol was added alone was measured and used as a control.
(§3) In this experimental example, in order to evaluate the antimicrobial effect of a preservative for a skin external application comprising polylysine, caprylyl glyceryl ether and a glycol compound at a weight ratio of 0.1 to 5:10 to 30:65 to 75, the minimum inhibitory concentrations (MICs) of the preservative of each Example against bacteria or fungi, including Escherichia coli (ATCC 8739), Pseudomonas aeruginosa (ATCC 9027), Staphylococcus aureus (ATCC 6538), Candida albicans (ATCC 10231), and Aspergillus brasiliensis (ATCC 16404), were measured. Polyepsilon-lysine was used as the polylysine, and propylene glycol, butylene glycol, or pentylene glycol was used as the glycol compound.
(§4) Each of the preservatives for skin external preparations was diluted to about 10%, and each of the dilutions was further serially diluted 1:1 ([…]). Thereby, samples of various concentrations (about 0.01% to about 10%) for each of the preservatives for skin external preparations were prepared. Each of the obtained samples was added to tryptic soy broth (TSB) medium or potato dextrose agar (PDA) medium. In about 10 ml of the medium to which each sample was added, each type of bacteria or fungi described above was seeded so that the final concentration of the bacteria or fungi was about 10^6 CFU/ml, and then the bacteria were cultured at about 32° C. for about 24 hours to 48 hours, and fungi were cultured at about 25° C. for about 24 hours to 48 hours. […] The growth of normal bacteria in a medium to which no sample was added was measured and used as a positive control.

[2] = system: Candida albicans (ATCC 10231); settings: Experimental Example 1; growth inhibited by about 95% or more; about 10^6 CFU/ml; about 25° C., 24 to 48 hours
Experimental: as §1, §2, §3, §4

[3] = system: Escherichia coli (ATCC 8739); settings: Experimental Example 1; growth inhibited by about 95% or more; about 10^6 CFU/ml; about 32° C., 24 to 48 hours
Experimental: as §1, §2, §3, §4

[4] = system: Pseudomonas aeruginosa (ATCC 9027); settings: Experimental Example 1; growth inhibited by about 95% or more; about 10^6 CFU/ml; about 32° C., 24 to 48 hours
Experimental: as §1, §2, §3, §4

[5] = system: Staphylococcus aureus (ATCC 6538); settings: Experimental Example 1; growth inhibited by about 95% or more; about 10^6 CFU/ml; about 32° C., 24 to 48 hours
Experimental: as §1, §2, §3, §4

- MIC (%, w/w) of sample A. brasiliensis [1]: >10 %, w/w
- MIC (%, w/w) of sample C. albicans [2]: >10 %, w/w
- MIC (%, w/w) of sample E. coli [3]: >10 %, w/w
- MIC (%, w/w) of sample P. aeruginosa [4]: >10 %, w/w
- MIC (%, w/w) of sample S. aureus [5]: >10 %, w/w
Compound: CC(O)CO (centres unmarked) [Propylene glycol]
